Measured values as given in patent US10858335B2 (Rigel Pharmaceuticals, Inc., priority 2014, dated 2020).
Structures can show the parent of a compound that is named as a salt.

Tested on: GDF8 signaling (p-SMAD-3 (Ser423/425))
Assay: AlphaScreen SureFire SMAD3 (p-Ser423/425) assay, GDF8-stimulated cells (GDF pSMAD)
Format: cell-based
Details: Mus musculus, MPC-11, MPC11; GDF8-stimulated; p-SMAD3 AlphaScreen; read-out: GDF pSMAD (MPC11) (inhibition of GDF8 signaling)

Row | SMILES | IC50
1 | Cc1cc(-c2ncccc2-c2ccc3ncc(C(=O)NCCCN4CCCC4=O)n3c2)ccc1F [compound 612, 6-(2-(4-Fluoro-3-methylphenyl)pyridin-3-yl)-N-(3-(2-oxopyrrolidin-1-yl)propyl)imidazo[1,2-a]pyridine-3-carboxamide] | 408 nM
2 | Cc1cc(-c2ncccc2-c2ccc3ncc(C(=O)OC[C@H](Cc4c[nH]c5ccccc45)NC(=O)OC(C)(C)C)n3c2)ccc1F [compound 614, (S)-2-((tert-Butoxycarbonyl)amino)-3-(1H-indol-3-yl)propyl 6-(2-(4-fluoro-3-methylphenyl)pyridin-3-yl)imidazo[1,2-a]pyridine-3-carboxylate] | 5560 nM
3 | Cc1cc(-c2ncccc2-c2ccc3ncc(C(=O)Nc4cccc(S(N)(=O)=O)c4)n3c2)ccc1F [compound 616, 6-(2-(4-Fluoro-3-methylphenyl)pyridin-3-yl)-N-(3-sulfamoylphenyl)imidazo[1,2-a]pyridine-3-carboxamide] | 2180 nM
4 | Cc1cc(-c2ncccc2-c2ccc3ncc(C(=O)Nc4ccc(S(N)(=O)=O)cc4)n3c2)ccc1F [compound 617, 6-(2-(4-Fluoro-3-methylphenyl)pyridin-3-yl)-N-(4-sulfamoylphenyl)imidazo[1,2-a]pyridine-3-carboxamide] | 10800 nM
5 | Cc1cc(-c2ncccc2-c2ccc3ncc(C(=O)Nc4cccc(C(N)=O)c4)n3c2)ccc1F [compound 619, N-(3-Carbamoylphenyl)-6-(2-(4-fluoro-3-methylphenyl)pyridin-3-yl)imidazo[1,2-a]pyridine-3-carboxamide] | 544 nM
6 | N#Cc1cnc2ccc(-c3cccnc3-c3ccccc3F)cn12 [compound 623, 6-(2-(2-Fluorophenyl)pyridin-3-yl)imidazo[1,2-a]pyridine-3-carbonitrile] | 6870 nM
7 | Cc1ccc(F)c(-c2ncccc2-c2ccc3ncc(C#N)n3c2)c1 [compound 624, 6-(2-(2-Fluoro-5-methylphenyl)pyridin-3-yl)imidazo[1,2-a]pyridine-3-carbonitrile] | 160 nM
8 | N#Cc1cccc(-c2ncccc2-c2ccc3ncc(C#N)n3c2)c1 [compound 627, 6-(2-(3-Cyanophenyl)pyridin-3-yl)imidazo[1,2-a]pyridine-3-carbonitrile] | 1260 nM
9 | Cc1cc(-c2ncccc2-c2ccc3c(cnn3C(=O)NCCN(C)C)c2)ccc1F [compound 633, N-(2-(Dimethylamino)ethyl)-5-(2-(4-fluoro-3-methylphenyl)pyridin-3-yl)-1H-indazole-1-carboxamide] | 11300 nM
10 | Cc1cc(-c2ncccc2-c2ccc3c(cnn3C(=O)NCCCN(C)C)c2)ccc1F [compound 634, N-(3-(Dimethylamino)propyl)-5-(2-(4-fluoro-3-methylphenyl)pyridin-3-yl)-1H-indazole-1-carboxamide] | 14800 nM
11 | Cc1cc(-c2ncccc2-c2ccc3ncc(C(=O)Nc4ccncc4)n3c2)ccc1F [compound 654, 6-(2-(4-Fluoro-3-methylphenyl)pyridin-3-yl)-N-(pyridin-4-yl)imidazo[1,2-a]pyridine-3-carboxamide] | 553 nM
12 | Cc1cc(-c2ncccc2-c2ccn3ncc(C(=O)NC4CCN(C)CC4)c3c2)ccc1F [compound 655, 5-(2-(4-Fluoro-3-methylphenyl)pyridin-3-yl)-N-(1-methylpiperidin-4-yl)pyrazolo[1,5-a]pyridine-3-carboxamide] | 245 nM
13 | Cc1cc(-c2ncccc2-c2ccn3ncc(C(=O)NCC4CCN(C)CC4)c3c2)ccc1F [compound 656, 5-(2-(4-Fluoro-3-methylphenyl)pyridin-3-yl)-N-((1-methylpiperidin-4-yl)methyl)pyrazolo[1,5-a]pyridine-3-carboxamide] | 550 nM
14 | Fc1ccc(-c2ncccc2-c2ccc3ncsc3c2)cc1 [compound 659, 6-(2-(4-Fluorophenyl)pyridin-3-yl)benzo[d]thiazole] | 2010 nM
15 | Fc1cccc(-c2ncccc2-c2ccc3ncsc3c2)c1F [compound 662, 6-(2-(2,3-Difluorophenyl)pyridin-3-yl)benzo[d]thiazole] | 9640 nM
16 | Cc1cc(-c2ncccc2-c2ccn3ncc(C(=O)N[C@@H]4CCCC[C@H]4N)c3c2)ccc1F [compound 663, N-((1R,2R)-2-Aminocyclohexyl)-5-(2-(4-fluoro-3-methylphenyl)pyridin-3-yl)pyrazolo[1,5-a]pyridine-3-carboxamide] | 8090 nM
17 | Fc1cc(-c2ncccc2-c2ccc3ncsc3c2)cc(F)c1F [compound 666, 6-(2-(3,4,5-Trifluorophenyl)pyridin-3-yl)benzo[d]thiazole] | 3970 nM

Results, then the compound that gave them:

Row | IC50 | SMILES
18 | 624 nM | Cc1cc(-c2ncccc2-c2ccc3ncc(C(=O)NCC(O)CO)n3c2)ccc1F (stereo not drawn) [compound 613, N-(2,3-Dihydroxypropyl)-6-(2-(4-fluoro-3-methylphenyl)pyridin-3-yl)imidazo[1,2-a]pyridine-3-carboxamide]
19 | 2130 nM | Cc1cc(-c2ncccc2-c2ccc3ncc(C(=O)OC[C@@H](N)Cc4c[nH]c5ccccc45)n3c2)ccc1F [compound 615, (S)-2-Amino-3-(1H-indol-3-yl)propyl 6-(2-(4-fluoro-3-methylphenyl)pyridin-3-yl)imidazo[1,2-a]pyridine-3-carboxylate formic acid salt]
20 | 1120 nM | Cc1cc(-c2ncccc2-c2ccc3ncc(C(=O)Nc4ccc(C(N)=O)cc4)n3c2)ccc1F [compound 618, N-(4-Carbamoylphenyl)-6-(2-(4-fluoro-3-methylphenyl)pyridin-3-yl)imidazo[1,2-a]pyridine-3-carboxamide]
21 | 3930 nM | N#Cc1cnc2ccc(-c3cccnc3-c3cccc(F)c3)cn12 [compound 621, 6-(2-(3-Fluorophenyl)pyridin-3-yl)imidazo[1,2-a]pyridine-3-carbonitrile]
22 | 3630 nM | N#Cc1cnc2ccc(-c3cccnc3-c3ccc(F)c(F)c3)cn12 [compound 622, 6-(2-(3,4-Difluorophenyl)pyridin-3-yl)imidazo[1,2-a]pyridine-3-carbonitrile]
23 | 7790 nM | N#Cc1cnc2ccc(-c3cccnc3-c3ccc(F)cc3)cn12 [compound 625, 6-(2-(4-Fluorophenyl)pyridin-3-yl)imidazo[1,2-a]pyridine-3-carbonitrile]
24 | 346 nM | COc1cccc(-c2ncccc2-c2ccc3ncc(C#N)n3c2)c1 [compound 626, 6-(2-(3-Methoxyphenyl)pyridin-3-yl)imidazo[1,2-a]pyridine-3-carbonitrile]
25 | 1710 nM | N#Cc1cc(-c2ncccc2-c2ccc3ncc(C#N)n3c2)ccc1F [compound 628, 6-(2-(3-Cyano-4-fluorophenyl)pyridin-3-yl)imidazo[1,2-a]pyridine-3-carbonitrile]
26 | 132 nM | Cc1cc(-c2ncccc2-c2ccc3c(cnn3C(=O)OC[C@H](N)Cc3c[nH]c4ccccc34)c2)ccc1F [compound 629, (R)-2-Amino-3-(1H-indol-3-yl)propyl 5-(2-(4-fluoro-3-methylphenyl)pyridin-3-yl)-1H-indazole-1-carboxylate TFA salt]
27 | 4150 nM | COc1cc(NC(=O)n2ncc3cc(-c4cccnc4-c4ccc(F)c(C)c4)ccc32)cc(OC)c1OC [compound 630, 5-(2-(4-Fluoro-3-methylphenyl)pyridin-3-yl)-N-(3,4,5-trimethoxyphenyl)-1H-indazole-1-carboxamide]
28 | 8690 nM | Cc1cc(-c2ncccc2-c2ccc3c(cnn3C(=O)NCCN3CCCC3)c2)ccc1F [compound 636, 5-(2-(4-Fluoro-3-methylphenyl)pyridin-3-yl)-N-(2-(pyrrolidin-1-yl)ethyl)-1H-indazole-1-carboxamide]
29 | 10600 nM | Cc1cc(-c2ncccc2-c2ccc3c(cnn3C(=O)NCCN)c2)ccc1F [compound 639, N-(2-Aminoethyl)-5-(2-(4-fluoro-3-methylphenyl)pyridin-3-yl)-1H-indazole-1-carboxamide]
30 | 19200 nM | Cc1cc(-c2ncccc2-c2ccc3c(cnn3C(=O)NCCCN)c2)ccc1F [compound 640, N-(3-Aminopropyl)-5-(2-(4-fluoro-3-methylphenyl)pyridin-3-yl)-1H-indazole-1-carboxamide]
31 | 1180 nM | Cc1cc(-c2ncccc2-c2ccc3ncc(C(=O)NCC4CCN(C)CC4)n3c2)ccc1F [compound 651, 6-(2-(4-Fluoro-3-methylphenyl)pyridin-3-yl)-N-((1-methylpiperidin-4-yl)methyl)imidazo[1,2-a]pyridine-3-carboxamide]
32 | 3780 nM | Cc1cc(-c2ncccc2-c2ccc3ncc(C(=O)NC4CCNCC4)n3c2)ccc1F [compound 652, 6-(2-(4-Fluoro-3-methylphenyl)pyridin-3-yl)-N-(piperidin-4-yl)imidazo[1,2-a]pyridine-3-carboxamide]
33 | 1040 nM | Cc1cc(-c2ncccc2-c2ccc3ncc(C(=O)NCCCn4ccnc4)n3c2)ccc1F [compound 653, N-(3-(1H-Imidazol-1-yl)propyl)-6-(2-(4-fluoro-3-methylphenyl)pyridin-3-yl)imidazo[1,2-a]pyridine-3-carboxamide]
34 | 3490 nM | Fc1ccccc1-c1ncccc1-c1ccc2ncsc2c1 [compound 657, 6-(2-(2-Fluorophenyl)pyridin-3-yl)benzo[d]thiazole]
35 | 1500 nM | Fc1cccc(-c2ncccc2-c2ccc3ncsc3c2)c1 [compound 658, 6-(2-(3-Fluorophenyl)pyridin-3-yl)benzo[d]thiazole]
36 | 2240 nM | Fc1cc(F)cc(-c2ncccc2-c2ccc3ncsc3c2)c1 [compound 660, 6-(2-(3,5-Difluorophenyl)pyridin-3-yl)benzo[d]thiazole]
37 | 1840 nM | Fc1ccc(-c2ncccc2-c2ccc3ncsc3c2)cc1F [compound 661, 6-(2-(3,4-Difluorophenyl)pyridin-3-yl)benzo[d]thiazole]
38 | 1380 nM | Cc1cc(-c2ncccc2-c2ccn3ncc(C(=O)N[C@H]4CCCC[C@@H]4N)c3c2)ccc1F [compound 664, N-((1S,2S)-2-Aminocyclohexyl)-5-(2-(4-fluoro-3-methylphenyl)pyridin-3-yl)pyrazolo[1,5-a]pyridine-3-carboxamide]
39 | 2360 nM | Fc1ccc(-c2ncccc2-c2ccc3ncsc3c2)c(F)c1 [compound 665, 6-(2-(2,4-Difluorophenyl)pyridin-3-yl)benzo[d]thiazole]
